For data set [1], the target named is T1, stromelysin (MMP-3) (Homo sapiens, UniProt P08254).
T1 construct: enzymatic activity of the catalytic domains of human stromelysin and of neutrophil collagenase; made in house
Briefly: Enzyme inhibition of the catalytic domain of human stromelysin (fluorogenic substrate). It counts as biochemical. The conditions noted are these: 15 min preincubation, pH=6.5, fluorescence 328 nm (ex)/393 nm (em). The procedure:
(§1) Preparation and determination of the enzymatic activity of the catalytic domains of human stromelysin and of neutrophil collagenase.
(§2) The enzymes stromelysin (MMP-3) and neutrophil collagenase (MMP-8) were prepared according to Ye et al. (Biochemistry; 31 (1992) pages 11231-11235). To measure the enzyme activity or the enzyme inhibitor action, 70 μl of buffer solution and 10 μl of enzyme solution are incubated for 15 min with 10 μl of a 10% strength (v/v) aqueous dimethyl sulfoxide solution, which optionally contains the enzyme inhibitor. After addition of 10 μl of a 10% strength (v/v) aqueous dimethyl sulfoxide solution which contains 1 mil/L of the substrates, the enzyme reaction is monitored by fluorescence spectroscopy (328 nm (ex)/393 nm(em)). The enzyme activity is shown as the extinction increase/min. The IC50 values listed in Table 2 are determined as those inhibitor concentrations which in each case lead to a 50% inhibition of the enzyme.
(§3) The buffer solution contains 0.05% Brij (Sigma, Deisenhofen, Germany) and also 0.1 mol/L tris/HCl, 0.1 mol/L NaCl, 0.01 mol/L CaCl2 and 0.1 mol/L piperazine-N,N′-bis(2-ethanesulfonic acid) (pH=6.5). The enzyme solution contains 5 μg/ml of one of the enzyme domains prepared according to Ye et al. The substrate solution contains 1 mil/L of the fluorogenic substrate (7-methoxycoumarin-4-yl)acetyl-Pro-Leu-Gly-Leu-3-(2′,4′-dinitrophenyl)-L-2,3-diaminopropionyl-Ala-Arg-NH2 (Bachem, Heidelberg, Germany).

Data set [2] addresses T2, neutrophil collagenase (MMP-8) (Homo sapiens, UniProt P22894).
T2 construct: enzymatic activity of the catalytic domains of human stromelysin and of neutrophil collagenase; made in house
Briefly: Enzyme inhibition of the catalytic domain of neutrophil collagenase (fluorogenic substrate). It counts as biochemical. The conditions noted are these: 15 min preincubation, pH=6.5, fluorescence 328 nm (ex)/393 nm (em). How it is done: as §1, §2, §3

Here are results for 43 compounds from US6355673B1, “Substituted diaminocarboxylic acids” (Aventis Pharma Deutschland GmbH, priority 1997, dated 2002).

Broadly, the melting point is the temperature of the solid-liquid transition. By IC50 is commonly meant the concentration needed to halve the response being measured. Low readings indicate greater potency in that assay, high ones weaker potency in that assay.

T2 sequence (P22894 100-262 limits assumed): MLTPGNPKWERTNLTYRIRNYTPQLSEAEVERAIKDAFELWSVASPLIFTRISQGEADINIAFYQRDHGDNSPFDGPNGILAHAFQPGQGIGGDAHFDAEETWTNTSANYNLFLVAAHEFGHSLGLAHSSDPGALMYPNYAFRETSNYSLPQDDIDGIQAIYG
T1 sequence (P08254 100-272 limits assumed): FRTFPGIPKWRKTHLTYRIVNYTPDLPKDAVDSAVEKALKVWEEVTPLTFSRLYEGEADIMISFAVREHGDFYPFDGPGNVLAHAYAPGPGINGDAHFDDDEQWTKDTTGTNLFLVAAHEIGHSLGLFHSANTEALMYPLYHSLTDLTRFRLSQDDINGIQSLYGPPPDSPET

Turning to `O=C(O)[C@H](CCCN1Cc2ccccc2C1=O)NS(=O)(=O)c1ccc(Oc2ccc(Cl)cc2)cc1` [Example 68], the melting point was 223 to 225 °C.
Still for that read-out and setting: the same measure for `CC(C)(C)OC(=O)NCCC[C@H](NS(=O)(=O)c1ccc(Oc2ccc(Cl)cc2)cc1)C(=O)O` [Example 172]: 131 to 133 °C; for `COC(=O)[C@@H](CCCCNC(=O)OCc1ccccc1)NS(=O)(=O)c1ccc(-c2ccc(Cl)cc2)cc1` [Example 17]: 69 to 70 °C; for `Cc1cc(C)nc(NCCC[C@H](NS(=O)(=O)c2ccc(-c3ccccc3)cc2)C(=O)O)n1` [Example 169]: 226 to 227 °C.
On the same count and under the same terms, the same measure for `O=C(O)C(CCCCN1C(=O)c2ccccc2C1=O)NS(=O)(=O)c1ccc(-c2ccccc2)cc1` (racemic) [Example 33]: 181 °C.
Take `Cc1ccc(S(=O)(=O)NC(=N)NCCC[C@H](NS(=O)(=O)c2ccc(-c3ccc(Cl)cc3)cc2)C(=O)O)cc1` [Example 21]: the IC50 in data set [1] came out at 70 nM; in data set [2], 20 nM.
Taken in the same sequence, the figures for `COc1ccc(S(=O)(=O)NCCC[C@H](NS(=O)(=O)c2ccc(-c3ccc(Cl)cc3)cc2)C(=O)O)cc1OC` [Example 60] were 10 nM and 10 nM.
In the same order, the values of `O=C(NCCC[C@H](NS(=O)(=O)c1ccc(-c2ccc(Cl)cc2)cc1)C(=O)O)c1cc(F)ccc1F` [Example 94] are 30 nM and 5 nM.
`CC1(C)C(C(=O)NCCC[C@H](NS(=O)(=O)c2ccc(-c3ccc(Cl)cc3)cc2)C(=O)O)C1(C)C` [Example 70]: the IC50 in data set [1] was 10 nM; in data set [2], 3 nM.
`O=C(NCCC[C@H](NS(=O)(=O)c1ccc(-c2ccc(Cl)cc2)cc1)C(=O)O)c1ccc(Cl)c(Cl)c1` [Example 92]: the IC50 amounted to 40 nM in data set [1] and 20 nM in data set [2].
Taken in the same sequence, the figures for `O=C(Cc1ccc(F)cc1)NCCC[C@H](NS(=O)(=O)c1ccc(-c2ccc(Cl)cc2)cc1)C(=O)O` [Example 116] were 20 nM and 4 nM.
In the same order, the values of `NC(=O)NCCCC[C@@H](NS(=O)(=O)c1ccc(-c2ccc(Cl)cc2)cc1)C(=O)O` [Example 23] are 40 nM and 5 nM.
As for `CN(CCC[C@H](NS(=O)(=O)c1ccc(-c2ccc(Cl)cc2)cc1)C(=O)O)Cc1ccccc1` [Example 145], the IC50 in data set [1] was 10 nM; in data set [2], 5 nM.
Taken in the same sequence, the figures for `O=C(NCCC[C@H](NS(=O)(=O)c1ccc(-c2ccc(Cl)cc2)cc1)C(=O)O)c1cc(Cl)ccc1O` [Example 162] were 50 nM and 6 nM.
Take `O=C(NCCC[C@H](NS(=O)(=O)c1ccc(-c2ccc(Cl)cc2)cc1)C(=O)O)NS(=O)(=O)c1ccccc1` [Example 5, (4-Chlorobiphenylsulfonyl)-N-delta-(phenylsulfonylamino-carbonyl)-Orn-OH]: the IC50 in data set [1] is 50 nM; in data set [2] it was 4 nM.
For the compound `CC(=O)Oc1ccccc1C(=O)NCCC[C@H](NS(=O)(=O)c1ccc(-c2ccc(Cl)cc2)cc1)C(=O)O` [Example 73], the IC50 in data set [1] is 4 nM; in data set [2], 2 nM.
Taken in the same sequence, the figures for `Cc1oncc1C(=O)NCCCC[C@@H](NS(=O)(=O)c1ccc(-c2ccc(Cl)cc2)cc1)C(=O)O` [Example 4, 4-Chlorobiphenylsulfonyl-N-epsilon-(5-methylisoxazol-4-carbonyl)-Lys-OH] were 90 nM and 20 nM.
Taken in the same sequence, the figures for `O=C(NCCC[C@@H](NS(=O)(=O)c1ccc(-c2ccc(Cl)cc2)cc1)C(=O)O)Nc1ccccc1` [Example 42] were 10 nM and 3 nM.
`O=C(/C=C/c1ccccc1)NCCC[C@H](NS(=O)(=O)c1ccc(-c2ccc(Cl)cc2)cc1)C(=O)O` [Example 101]: the IC50 is 40 nM in data set [1] and 10 nM in data set [2].
As to `COc1ccccc1C(=O)NCCC[C@H](NS(=O)(=O)c1ccc(-c2ccc(Cl)cc2)cc1)C(=O)O` [Example 151], the IC50 in data set [1] worked out at 30 nM; in data set [2], 10 nM.
Taken in the same sequence, the figures for `O=C(NCCC[C@H](NS(=O)(=O)c1ccc(-c2ccc(Cl)cc2)cc1)C(=O)O)c1ccco1` [Example 99] were 5 nM and 2 nM.
In the same order, the values of `CN(C)c1ccc(C(=O)NCCC[C@@H](NS(=O)(=O)c2ccc(-c3ccc(Cl)cc3)cc2)C(=O)O)cc1` [Example 43] are 40 nM and 20 nM.
Taken in the same sequence, the figures for `O=C(O)[C@@H](CCCN1Cc2ccccc2C1=O)NS(=O)(=O)c1ccc(-c2ccc(Cl)cc2)cc1` [Example 7, 2-(2R)-(4-Chlorobiphenylsulfonylamino)-5-(1-oxo-1,3-dihydro-isoindol-2-yl)pentanoic acid] were 4 nM and 2 nM.
For `O=C(NCCC[C@H](NS(=O)(=O)c1ccc(-c2ccccc2)cc1)C(=O)O)c1ccccc1Cl` [Example 160], the values for the IC50 in data set [1] and in data set [2] were 70 nM and 10 nM, respectively.
In the case of `O=C(NCCC[C@H](NS(=O)(=O)c1ccc(-c2ccccc2)cc1)C(=O)O)C1CC1` [Example 161], the IC50 in data set [1] was 40 nM; in data set [2], 4 nM.
`O=C(NCCC[C@H](NS(=O)(=O)c1ccc(-c2ccc(Cl)cc2)cc1)C(=O)O)NS(=O)(=O)c1ccccc1` (single isomer, unassigned) [Example 61]: the IC50 came to 6 nM in data set [1] and 2 nM in data set [2].
In the same order, the values of `O=C(Cc1cccs1)NCCC[C@H](NS(=O)(=O)c1ccc(-c2ccc(Cl)cc2)cc1)C(=O)O` [Example 111] are 10 nM and 3 nM.
`O=C(O)C(CCN1C(=O)c2ccccc2C1=O)NS(=O)(=O)c1ccc(-c2ccccc2)cc1` (racemic) [Example 27] came in with a melting point of 176 °C.
For `CCCCOc1ccc(C(=O)NCCC[C@H](NS(=O)(=O)c2ccc(-c3ccc(Cl)cc3)cc2)C(=O)O)cc1` [Example 106], the IC50 in data set [1] came to 60 nM; in data set [2], 30 nM.
In the same order, the values of `CC(C)(C)CC(=O)NCCC[C@@H](NS(=O)(=O)c1ccc(-c2ccc(Cl)cc2)cc1)C(=O)O` [Example 46] are 10 nM and 3 nM.
In the same order, the values of `O=C(O)[C@H](CCCN1C(=O)C2CSCN2C1=O)NS(=O)(=O)c1ccc(-c2ccc(Cl)cc2)cc1` (some centres unmarked) [Example 158] are 7 nM and 2 nM.
Regarding `O=C(NCCC[C@@H](NS(=O)(=O)c1ccc(-c2ccc(Cl)cc2)cc1)C(=O)O)c1ccc(F)cc1` [Example 47], the IC50 in data set [1] worked out at 10 nM; in data set [2] it was 3 nM.
Taken in the same sequence, the figures for `O=C(NCCC[C@H](NS(=O)(=O)c1ccc(-c2ccc(Cl)cc2)cc1)C(=O)O)c1ccc(Cl)cc1Cl` [Example 115] were 5 nM and 3 nM.
For `O=C(CC(C(=O)O)c1ccccc1)NCCC[C@@H](NS(=O)(=O)c1ccc(-c2ccc(Cl)cc2)cc1)C(=O)O` (single isomer, unassigned) [Example 38], the IC50 in data set [1] came out at 5 nM; in data set [2] it was 2 nM.
Take `O=C(O)[C@H](CCCN(C(=O)C1CC1)C(=O)C1CC1)NS(=O)(=O)c1ccc(-c2ccc(Cl)cc2)cc1` [Example 63]: the IC50 in data set [1] was determined as 10 nM; in data set [2], 2 nM.
As for `CC(=O)NCCCC[C@@H](NS(=O)(=O)CCc1ccc(-c2ccccc2)cc1)C(=O)O` [Example 9, R-(4-Biphenylethylsulfonyl)-N-epsilon-acetyl-Lys-OH], the IC50 in data set [1] turned out to be 60 nM; in data set [2], 70 nM.
On to `O=C(NCCC[C@H](NS(=O)(=O)c1ccc(-c2ccc(Cl)cc2)cc1)C(=O)O)c1cccc(F)c1` [Example 95], for which the IC50 worked out at 20 nM in data set [1] and 4 nM in data set [2].
As to `C[C@@H]1NC(=O)N(CCC[C@H](NS(=O)(=O)c2ccc(-c3ccc(Cl)cc3)cc2)C(=O)O)C1=O` [Example 77], the IC50 in data set [1] was determined as 10 nM; in data set [2], 2 nM.
As for `N#Cc1ccc(C(=O)NCCC[C@H](NS(=O)(=O)c2ccc(-c3ccc(Cl)cc3)cc2)C(=O)O)cc1` [Example 85], the IC50 in data set [1] came out at 20 nM; in data set [2], 5 nM.
In the same order, the values of `O=C(O)[C@H](CCCN(Cc1ccccc1)C(=O)C1CC1)NS(=O)(=O)c1ccc(-c2ccc(Cl)cc2)cc1` [Example 113] are 5 nM and 3 nM.
Take `O=C(Cc1ccc(Cl)cc1)NCCC[C@H](NS(=O)(=O)c1ccc(-c2ccc(Cl)cc2)cc1)C(=O)O` [Example 89]: the IC50 came to 30 nM in data set [1] and 10 nM in data set [2].
Turning to `COc1cccc(OC)c1C(=O)NCCC[C@H](NS(=O)(=O)c1ccc(-c2ccc(Cl)cc2)cc1)C(=O)O` [Example 139], the IC50 in data set [1] came out at 50 nM; in data set [2], 20 nM.
In the same order, the values of `O=C(O)c1ccccc1S(=O)(=O)NCCC[C@H](NS(=O)(=O)c1ccc(-c2ccc(Cl)cc2)cc1)C(=O)O` [Example 76] are 40 nM and 40 nM.
